Reference: patent US20250129140A1, “ANTI-HCMV ANTIBODIES AND ANTIGEN-BINDING FRAGMENTS THEREOF” (ICAHN SCHOOL OF MEDICINE AT MOUNT SINAI, priority 2021, published 2025)

Test system: CMV TB40/E infected fibroblasts
Assay: SCID mouse gelfoam implant model of CMV proliferation
Assay type: in vivo, SCID mice
Conditions: fully human mAbs 4 or 18 mg/kg, ganciclovir 50 mg/kg; i.p. every three days; day ten; versus isotype control
Protocol: At day ten post-implantation, the cells were released from the gelfoam and DNA extracted from the cells was subjected to qPCR for the HCMV UL123 and β-actin genes. The relative CMV levels cells were determined from Ct values of qPCR analysis (in triplicate) from cells collected from three mice/treatment. Statistical tests were performed using ordinary one-way ANOVA with comparisons to isotype treated cells as a control and a Dunnett's post-test; **, p<0.01; ***, p<0.001; ****, p<0.0001.
The gelfoam was implanted subcutaneously in three mice per group. […] Treatments were administrated every three days for nine days. At day ten post-implant, the gelfoam was removed and cells were released from the gel foam by collagenase treatment. The total DNA was harvest from the cells, quantified, and subjected to qPCR for UL123 (CMV gene) and b-actin (housekeeping geen) using SYBR green to evaluate virus proliferation. The qPCR analysis was performed in triplicate from three animals to determine the Ct values for UL123 and b-actin to calculate the relative levels of CMV DNA from the gelfoam samples.

## Nc1nc(O)c2ncn(COC(CO)CO)c2n1 [ganciclovir, reference compound]
  CMV DNA levels (UL123 relative to β-actin, qPCR): effective at decreasing CMV DNA levels
